# US9920057B2, “Substituted pyrazino[1′,2′:1 ,6]pyrido[3,4-b]indoles as phosphodiesterase type 5 inhibitors” (Chongqing University of Arts and Sciences, priority 2015, dated 2018)
# pIC50: −log10 of the molar value. Where “and” joins values, the source holds several entries; their conditions need not be identical. Identical values can stand only once. Like-named read-outs stand apart in the source and are kept apart here.
# Assays:
# [1] = Study on pharmacokinetics in rats, oral administration; type: in vivo, SD rat; details: oral 10.0 mg · kg^−1
# Protocol: Sample Preparation Method: One step protein precipitation
# Precipitant: ACN, with concentration of Verapamil (5.00 ng·mL-1)
# Calibration Curve and QC samples Preparation: 5.00 μL each of the calibration or QC working solution and 45.0 μL of blank plasma were transferred into a 1.5-mL microcentrifuge tube. Final standard curve concentration levels were 1.00, 2.50, 5.00, 10.0, 50.0, 100, 500 and 1000 ng·mL-1. The QC concentration levels were 2.50 or 5.00, 50.0 and 800 ng·mL-1. Dilution QC was 5000 ng·mL-1.
# Plasma Samples Preparation: Aliquots of 10.0 μL of real samples, calibration curve samples and QC samples were supplemented with 100 μL of precipitant. After vortexed for 3.00 min and centrifuged at 12000 rpm for 5.00 min, the supernatant 10 μL was injected for LC-MS/MS analysis.
# Number of Rats/Group: 3/group
# Administration Route: oral administration
# Blood Collection Time: 0 min, 15 min, 30 min, 1 h, 2 h, 4 h, 6 h, 8 h, 24 h
# normal rat = assay: Erectile function of normal rat: blood pressure, intracavernous pressure and detumescence time on cavernous nerve stimulation; type: in vivo; details: reference group (Calais), dose not stated
# Protocol: Rats were anesthetized with 2% pentobarbital […], then incision was made in the right side of neck, a PE-50 silicon tube connected with a pressure transducer was inserted into the carotid artery, to record the change of the blood pressure.
# The erectile activity was induced by a bipolar stainless-steel, stimulus parameters at a pulse width of […], stimulation frequency of 7.98 Hz, current of 3 mA, stimulation duration of 40 s, and then record the intracavernous pressure (ICP).
# Assessment of erectile function: ICP, BP, change of ICP and detumescence time were monitored though electric cavernous nerve stimulation at 2, 6 and 24 hours post dosing. Erectile function was evaluated by change of ICP and detumescence time.
# PDE1A = target: T1, PDE1A (Homo sapiens, UniProt P54750); assay: Inhibition of PDE activity (assay kit); type: biochemical
# T1 construct: purchased
# T1 sequence (P54750 whole entry): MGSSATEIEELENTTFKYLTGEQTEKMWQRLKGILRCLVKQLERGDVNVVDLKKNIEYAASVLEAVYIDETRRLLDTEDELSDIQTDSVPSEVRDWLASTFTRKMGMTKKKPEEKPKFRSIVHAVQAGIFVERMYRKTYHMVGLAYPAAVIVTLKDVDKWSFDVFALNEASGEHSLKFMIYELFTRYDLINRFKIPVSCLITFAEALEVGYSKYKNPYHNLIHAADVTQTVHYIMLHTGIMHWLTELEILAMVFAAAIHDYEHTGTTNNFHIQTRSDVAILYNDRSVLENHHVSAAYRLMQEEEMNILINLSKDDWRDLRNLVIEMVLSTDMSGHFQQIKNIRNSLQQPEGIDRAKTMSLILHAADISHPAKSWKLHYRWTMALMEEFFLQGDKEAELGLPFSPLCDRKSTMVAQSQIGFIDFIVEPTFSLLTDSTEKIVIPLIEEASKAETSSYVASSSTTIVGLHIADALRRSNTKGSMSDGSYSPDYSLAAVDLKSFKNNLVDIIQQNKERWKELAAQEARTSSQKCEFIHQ
# Protocol: (§1) i. Supplement 99 μl assay buffer per well, then add 1 μl compound in DMSO dilution to wells of V96 MicroWell Plates and uniformly mix;
# (§2) ii. Add 5 μl compound in assay buffer dilution to each well of 96-well microplate;
# (§3) the final concentration of compound as below:
# (§4) The inhibitory potential of test compounds on several types of phosphodiesterase (PDE) activity is determined according to the protocol of assay kit.
# PDE2A = target: T2, PDE2A (Homo sapiens, UniProt O00408); assay: Inhibition of PDE activity (assay kit); type: biochemical
# T2 construct: purchased
# T2 sequence (O00408 whole entry): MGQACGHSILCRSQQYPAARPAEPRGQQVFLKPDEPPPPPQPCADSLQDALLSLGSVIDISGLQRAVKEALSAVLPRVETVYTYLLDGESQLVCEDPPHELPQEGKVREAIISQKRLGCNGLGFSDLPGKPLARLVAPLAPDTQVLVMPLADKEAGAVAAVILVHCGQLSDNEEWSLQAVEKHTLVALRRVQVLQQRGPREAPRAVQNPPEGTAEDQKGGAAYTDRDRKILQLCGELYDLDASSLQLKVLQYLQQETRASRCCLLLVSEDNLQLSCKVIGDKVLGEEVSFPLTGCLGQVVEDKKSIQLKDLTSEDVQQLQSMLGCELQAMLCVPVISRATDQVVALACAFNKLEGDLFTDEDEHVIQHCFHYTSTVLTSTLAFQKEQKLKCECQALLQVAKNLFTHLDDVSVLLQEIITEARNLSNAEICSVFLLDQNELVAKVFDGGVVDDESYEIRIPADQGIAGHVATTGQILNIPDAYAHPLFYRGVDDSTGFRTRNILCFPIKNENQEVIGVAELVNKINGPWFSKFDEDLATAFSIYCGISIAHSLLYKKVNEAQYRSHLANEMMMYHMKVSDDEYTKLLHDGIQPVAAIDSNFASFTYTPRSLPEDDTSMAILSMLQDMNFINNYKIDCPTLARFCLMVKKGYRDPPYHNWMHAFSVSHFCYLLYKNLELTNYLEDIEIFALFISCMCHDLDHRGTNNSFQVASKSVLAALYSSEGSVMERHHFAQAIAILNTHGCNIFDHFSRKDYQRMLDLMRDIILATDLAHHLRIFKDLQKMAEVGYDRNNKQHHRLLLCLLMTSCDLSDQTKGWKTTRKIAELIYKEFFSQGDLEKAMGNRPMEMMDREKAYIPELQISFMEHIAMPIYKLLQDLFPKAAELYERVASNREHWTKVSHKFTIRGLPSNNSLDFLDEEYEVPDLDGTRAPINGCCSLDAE
# Protocol: as §1, §2, §3, §4
# PDE3A = target: T3, PDE3A (Homo sapiens, UniProt Q14432); assay: Inhibition of PDE activity (assay kit); type: biochemical
# T3 construct: purchased
# T3 sequence (Q14432 whole entry): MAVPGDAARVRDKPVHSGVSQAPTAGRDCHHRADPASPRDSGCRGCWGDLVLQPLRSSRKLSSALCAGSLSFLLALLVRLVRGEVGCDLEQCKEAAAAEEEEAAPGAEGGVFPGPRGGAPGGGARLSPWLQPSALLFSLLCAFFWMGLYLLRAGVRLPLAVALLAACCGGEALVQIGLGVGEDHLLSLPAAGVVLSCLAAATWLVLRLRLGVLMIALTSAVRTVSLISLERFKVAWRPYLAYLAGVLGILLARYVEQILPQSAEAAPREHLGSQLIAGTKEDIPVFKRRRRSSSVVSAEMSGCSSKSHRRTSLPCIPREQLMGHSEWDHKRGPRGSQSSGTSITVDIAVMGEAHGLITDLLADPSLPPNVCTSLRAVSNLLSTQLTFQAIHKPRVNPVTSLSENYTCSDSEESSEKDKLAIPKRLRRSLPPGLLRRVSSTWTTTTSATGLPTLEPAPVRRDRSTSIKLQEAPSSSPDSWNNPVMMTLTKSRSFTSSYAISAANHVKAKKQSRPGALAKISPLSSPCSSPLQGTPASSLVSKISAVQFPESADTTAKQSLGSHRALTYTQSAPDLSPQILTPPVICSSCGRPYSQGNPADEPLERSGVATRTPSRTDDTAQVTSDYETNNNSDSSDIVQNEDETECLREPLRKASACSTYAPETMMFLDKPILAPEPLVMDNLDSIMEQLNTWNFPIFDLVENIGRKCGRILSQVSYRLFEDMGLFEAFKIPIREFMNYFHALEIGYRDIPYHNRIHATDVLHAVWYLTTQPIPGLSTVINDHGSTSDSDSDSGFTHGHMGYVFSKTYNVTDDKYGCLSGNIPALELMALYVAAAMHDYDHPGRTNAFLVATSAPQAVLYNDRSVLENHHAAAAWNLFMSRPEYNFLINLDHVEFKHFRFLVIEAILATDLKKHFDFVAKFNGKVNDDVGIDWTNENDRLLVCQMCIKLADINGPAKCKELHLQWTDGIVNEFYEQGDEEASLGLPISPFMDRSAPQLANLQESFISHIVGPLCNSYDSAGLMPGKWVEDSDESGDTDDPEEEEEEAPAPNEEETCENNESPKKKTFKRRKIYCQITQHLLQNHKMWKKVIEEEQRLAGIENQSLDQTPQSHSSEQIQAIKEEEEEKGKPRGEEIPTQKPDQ
# Protocol: as §1, §2, §3, §4
# PDE7A = target: T4, PDE7A (Homo sapiens, UniProt Q13946); assay: Inhibition of PDE activity (assay kit); type: biochemical
# T4 construct: purchased
# T4 sequence (Q13946 whole entry): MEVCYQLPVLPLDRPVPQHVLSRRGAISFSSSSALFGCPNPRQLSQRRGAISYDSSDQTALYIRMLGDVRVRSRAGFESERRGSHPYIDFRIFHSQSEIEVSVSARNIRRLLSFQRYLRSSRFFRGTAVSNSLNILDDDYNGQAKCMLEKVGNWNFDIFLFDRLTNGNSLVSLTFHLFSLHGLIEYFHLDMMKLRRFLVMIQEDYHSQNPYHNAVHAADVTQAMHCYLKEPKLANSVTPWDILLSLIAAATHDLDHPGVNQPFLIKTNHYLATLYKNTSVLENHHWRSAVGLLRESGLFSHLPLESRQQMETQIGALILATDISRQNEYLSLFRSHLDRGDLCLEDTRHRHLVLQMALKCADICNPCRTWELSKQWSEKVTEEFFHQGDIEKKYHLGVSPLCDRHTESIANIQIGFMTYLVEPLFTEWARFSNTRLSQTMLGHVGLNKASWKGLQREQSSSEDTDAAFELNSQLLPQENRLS
# Protocol: as §1, §2, §3, §4
# [2] = background statement; cited from earlier work
# PDE5A = target: T5, PDE5A (Homo sapiens, UniProt O76074); assay: Inhibition against PDE5 (Homogenous Time Resolve Fluoresce); type: biochemical; details: HTF
# T5 construct: purchased SIGMA-ALDRICH E904
# Protocol: Method: IC50 of an inhibition effect on PDE5A (E904, SIGMA-ALDRICH) of test compounds was tested by using Sildenafil (S1431, selleck) as a positive control sample and the method of Homogenous Time Resolve Fluoresce, HTF (Cat. No. 62GM2PEB, Cisbio.)
# [3] = SD, rat, plasma, po, 10 mg/kg, Mean of 3 rats
# [4] = SD, rat, plasma, po, 10 mg/kg, Mean of 3 rats, read-out: AUC0-inf
# [5] = SD, rat, plasma, po, 10 mg/kg, Mean of 3 rats, read-out: AUC0-t
# [6] = SD, rat, plasma, po, 10 mg/kg, Mean of 3 rats, read-out: Cmax
# [7] = SD, rat, plasma, po, 10 mg/kg, individual rats
# [8] = SD, rat, plasma, po, 10 mg/kg, individual rats, read-out: AUC0-inf
# [9] = SD, rat, plasma, po, 10 mg/kg, individual rats, read-out: AUC0-t
# [10] = SD, rat, plasma, individual rats
compound,measurement,setting,value
CN1CC(=O)N2[C@H](c3ccc4c(c3)OCO4)c3[nH]c4ccccc4c3C[C@@H]2C1=O [Cialis],AUMC0-inf,[1]; Mean of 3 rats,54240 h · h · ng · mL^−1
same,AUMC0-t,[1]; Mean of 3 rats,52702 h · h · ng · mL^−1
same,Kel,[1]; Mean of 3 rats,0.248 h⁻¹
same,MRTPO,[1]; Mean of 3 rats,6.07 h
same,half-life,[1]; [3],2.99 h
same,AUC0-inf,[1]; [4],8860 ng·h/mL
same,AUC0-t,[1]; [5],8810 ng·h/mL
same,Cmax,[1]; [6],926 ng/mL
same,half-life,[1]; [7],3.46 h
same,AUC0-inf,[1]; [8],8810 ng·h/mL
same,AUC0-t,[1]; [9],8720 ng·h/mL
same,Tmax,[1]; [10],4 h
same,AUC0-inf,[1]; individual rats,6051 ng·h/mL and 11729 ng·h/mL
same,AUC0-t,[1]; individual rats,5993 ng·h/mL and 11723 ng·h/mL
same,AUMC0-inf,[1]; individual rats,56364 h · h · ng · mL^−1 and 34440 h · h · ng · mL^−1 and 71915 h · h · ng · mL^−1
same,AUMC0-t,[1]; individual rats,53611 h · h · ng · mL^−1 and 32747 h · h · ng · mL^−1 and 71748 h · h · ng · mL^−1
same,Cmax,[1]; individual rats,747 ng/mL and 676 ng/mL and 1356 ng/mL
same,Kel,[1]; individual rats,0.200 h⁻¹ and 0.197 h⁻¹ and 0.346 h⁻¹
same,MRTPO,[1]; individual rats,6.40 h and 5.69 h and 6.13 h
same,t1/2,[1]; individual rats,3.51 h and 2.00 h
same,BP after stimulation,normal rat; 2 hours after dosing,64.14 ± 9.86 mmHg
same,BP before stimulation,normal rat; 2 hours after dosing,100.98 ± 4.48 mmHg
same,Change of BP,normal rat; 2 hours after dosing,36.85 ± 7.34 mmHg
same,Change of ICP,normal rat; 2 hours after dosing,31.82 ± 7.63 mmHg
same,Detumescence Time,normal rat; 2 hours after dosing,40.50 ± 21.14 s
same,ICP after stimulation,normal rat; 2 hours after dosing,39.19 ± 8.58 mmHg
same,ICP before stimulation,normal rat; 2 hours after dosing,7.38 ± 1.75 mmHg
same,BP after stimulation,normal rat; 6 hours after dosing,58.14 ± 14.30 mmHg
same,BP before stimulation,normal rat; 6 hours after dosing,91.20 ± 28.48 mmHg
same,Change of BP,normal rat; 6 hours after dosing,33.07 ± 17.13 mmHg
same,Change of ICP,normal rat; 6 hours after dosing,34.15 ± 6.99 mmHg
same,Detumescence Time,normal rat; 6 hours after dosing,44.25 ± 13.35 s
same,ICP after stimulation,normal rat; 6 hours after dosing,41.76 ± 6.49 mmHg
same,ICP before stimulation,normal rat; 6 hours after dosing,7.61 ± 1.53 mmHg
same,BP after stimulation,normal rat; 24 hours after dosing,78.00 ± 2.68 mmHg
same,Change of BP,normal rat; 24 hours after dosing,34.26 ± 7.18 mmHg
same,Change of ICP,normal rat; 24 hours after dosing,35.38 ± 4.55 mmHg
same,Detumescence Time,normal rat; 24 hours after dosing,41.25 ± 10.34 s
same,ICP after stimulation,normal rat; 24 hours after dosing,43.01 ± 6.19 mmHg
same,ICP before stimulation,normal rat; 24 hours after dosing,7.63 ± 4.03 mmHg
same,pIC50,PDE1A,< 5.00
same,pIC50,PDE2A,< 5.00
same,pIC50,PDE3A,< 5.00
same,pIC50,PDE7A,< 5.00
same,half-life in body,[2],24 to 36 h
NN1CC(=O)N2[C@H](c3ccc4c(c3)OCO4)c3[nH]c4ccccc4c3C[C@@H]2C1=O [DDCI02],pIC50,PDE5A,6.25
same,AUMC0-inf,[1]; Mean of 3 rats,69719 h · h · ng · mL^−1
same,AUMC0-t,[1]; Mean of 3 rats,63864 h · h · ng · mL^−1
same,Kel,[1]; Mean of 3 rats,0.193 h⁻¹
same,MRTPO,[1]; Mean of 3 rats,4.19 h
same,half-life,[1]; [3],3.73 h
same,AUC0-inf,[1]; [4],16300 ng·h/mL
same,AUC0-t,[1]; [5],16100 ng·h/mL
same,Cmax,[1]; [6],4680 ng/mL
same,half-life,[1]; [7],4.85 h
same,AUC0-inf,[1]; [8],18600 ng·h/mL
same,AUC0-t,[1]; [9],18100 ng·h/mL
same,Cmax,"[1]; SD, rat, plasma, po, 10 mg/kg, individual rats, read-out: Cmax",4580 ng/mL
same,Tmax,[1]; [10],0.25 h
same,AUC0-inf,[1]; individual rats,15617 ng·h/mL and 14794 ng·h/mL
same,AUC0-t,[1]; individual rats,15563 ng·h/mL and 14723 ng·h/mL
same,AUMC0-inf,[1]; individual rats,99393 h · h · ng · mL^−1 and 57718 h · h · ng · mL^−1 and 52047 h · h · ng · mL^−1
same,AUMC0-t,[1]; individual rats,85428 h · h · ng · mL^−1 and 56156 h · h · ng · mL^−1 and 50008 h · h · ng · mL^−1
same,Cmax,[1]; individual rats,4288 ng/mL and 5171 ng/mL
same,Kel,[1]; individual rats,0.143 h⁻¹ and 0.221 h⁻¹ and 0.216 h⁻¹
same,MRTPO,[1]; individual rats,5.35 h and 3.70 h and 3.52 h
same,t1/2,[1]; individual rats,3.14 h and 3.21 h
